Where “and” joins values, the source holds several entries; their conditions need not be identical. Identical values can stand only once.
System: cos-7 cells
Test: DNA transfection: luciferase expression relative to Lipofectamine 2000
Type: cell-based
Conditions: 300 ng Luciferase DNA per well, luciferase assay after 48 hours
Protocol: 14,000 cos-7 cells (ATCC, Manassas, Va.) were seeded into each well of a solid white or clear 96 well plate (Corning-Costar, Kennebunk, Me.) and allowed to attached overnight in growth medium, composed of: 500 ml phenol red minus DMEM, 50 ml heat inactivated FBS, 5 ml penicillin/streptomycin (Invitrogen, Carlsbad, Calif.).
A small liquot of lipid was tranferred to an Eppendorf tube. Based on the mass of the lipid in the tube, sterile 25 mM sodium acetate buffer was added to each tube to yield a concentration of 60 mg/ml. The resulting mixture was vortexed for approximately 20 minutes until the lipid was fully dissolved. DNA was prepared based on 300 ng DNA per well of a 96-well plate. 291 μg of Lc DNA was dissolved in 9210 μl of 25 mM sodium acetate buffer. Aliquots of 30 μl of DNA solution were added to each well expect for the last column which was reserved for the Lipo2000 standard. For the last column of the plate, 61 μg of DNA was added to 1940 μl Optimem. 150 μl of media/Optimem was added to each well of plates. 50 μl of lipid solution was aliquoted into wells of robot plate. The following amounts were aliquoted to obtain the correct ratios of DNA to lipid:
In quadruplicate, 30 μl of lipid was aliquoted onto DNA in four rows for each ratio. For the Lipo2000 control (2.5 w/w ratio to DNA), 152.5 μg of Lipo sample was aliquoted into 1847.5 μl of Optimem. 30 μl of this solution was aliquoted onto DNA in the Optimem in the last columns of each plate. The plates were incubated for 15-20 minutes, and then 36.5 μl of lipid+DNA complexes was transferred into 150 μl of media/Optimem, then add to cells. The media was aspirated off the cells, and 105 μl of the lipid/DNA/media/Optimem solution was added to the cells. The luciferase assay was performed after 48 hours.
Luminescence was analyzed using bright-glo assay kits (Promega). Briefly, 100 μl of bright-glo solution was added to each well of the microtiter plate containing media and cells. Luminescence was measured using a Mithras Luminometer (Berthold, Oak Ridge, Tenn.). In some cases, a neutral density filter (Chroma, Brattleboro, Vt.) was used to prevent saturation of the luminometer. A standard curve for Luciferase was generated by titration of Luciferase enzyme (Promega) into growth media in white microtiter plates. Luciferase in ng per well are calculated for each of the lipids at 2.5 w/w, 5 w/w, 10 w/w, 15 w/w, 20 w/w, and 25 w/w lipid to DNA based on the standard curve.
The table below summarizes the data as a % of the luciferase activity obtained from the use of Lipofectamine 2000. The table indicates the best lipids for transfection.

| SMILES | Luciferase expression as a percentage of that achieved using Lipofectamine 2000 (lipid/DNA 2.5 w/w) | Luciferase expression as a percentage of that achieved using Lipofectamine 2000 (lipid/DNA 5 w/w) | Luciferase expression as a percentage of that achieved using Lipofectamine 2000 (lipid/DNA 10 w/w) | Luciferase expression as a percentage of that achieved using Lipofectamine 2000 (lipid/DNA 15 w/w) | Luciferase expression as a percentage of that achieved using Lipofectamine 2000 (lipid/DNA 20 w/w) | Luciferase expression as a percentage of that achieved using Lipofectamine 2000 (lipid/DNA 25 w/w) |
| --- | --- | --- | --- | --- | --- | --- |
| CCCCCCCCCCOC(=O)CCN(CCC(=O)OCCCCCCCCCC)C[C@@H](C)O [LB21] | 0.7% | 0.8% | 0.7% | 0.7% | 0.7% | 0.8% |
| CCCCCCCCCCOC(=O)CCN(CCC(=O)OCCCCCCCCCC)C[C@H](C)O [LB22] | 0.3% | 0.3% | 0.4% | 0.4% | 0.4% | 0.4% |
| CCCCCCCCCCOC(=O)CCN(CCC(=O)OCCCCCCCCCC)CC(O)CO (stereo not drawn) [LB24] | 0.1% | 0.2% | 0.4% | 0.1% | 0.1% | 0.1% |
| CCCCCCCCCCOC(=O)CCN(CCC(=O)OCCCCCCCCCC)C(CO)CO [LB25] | 0.8% | 2.4% | 2.6% | 3.3% | 2.3% | 1.8% |
| CCCCCCCCCCOC(=O)CCN(CCC(=O)OCCCCCCCCCC)C(C)(CO)CO [LB26] | 0.1% | 0.1% | 0.1% | 0.1% | 0.1% | 0.1% |
| CCCCCCCCCCOC(=O)CCN(CCCCO)CCC(=O)OCCCCCCCCCC [LB28] | 0.1% | 0.1% | 0.1% | 0.1% | 0.1% | 0.1% |
| CCCCCCCCCCOC(=O)CCN(CCOCCO)CCC(=O)OCCCCCCCCCC [LB31] | 1.2% and 0.1% | 0.8% and 0.1% | 8.3% and 0.1% | 1.9% and 0.1% | 1.3% and 0.1% | 4.2% and 0.1% |
| CCCCCCCCCCOC(=O)CCN(CCCCCO)CCC(=O)OCCCCCCCCCC [LB32] | 0.1% | 0.1% | 0.1% | 0.1% | 0.1% | 0.1% |
| CCCCCCCCCCOC(=O)CCN(CCC(=O)OCCCCCCCCCC)CC(C)(C)CO [LB33] | 0.1% | 0.1% | 0.1% | 0.1% | 0.1% | 0.1% |
| CCCCCCCCCCOC(=O)CCN(CCC(=O)OCCCCCCCCCC)C(CC)(CO)CO [LB34] | 0.1% | 0.1% | 0.2% | 0.4% | 0.1% | 0.1% |
| CCCCCCCCCCOC(=O)CCN(CCCCCCO)CCC(=O)OCCCCCCCCCC [LB36] | 0.1% | 0.1% | 0.1% | 0.1% | 0.1% | 0.1% |
| CCCCCCCCCCOC(=O)CCN(CCC(=O)OCCCCCCCCCC)C1CCC(O)CC1 (stereo not drawn) [LB38] | 0.7% | 0.8% | 0.7% | 0.8% | 0.7% | 0.8% |
| CCCCCCCCCCOC(=O)CCN(C)CCN(C)CCC(=O)OCCCCCCCCCC [LB60] | 0.4% | 0.4% | 0.4% | 0.4% | 0.4% | 0.4% |
| CCCCCCCCCCOC(=O)CCN(CC)CCN(CC)CCC(=O)OCCCCCCCCCC [LB61] | 0.1% | 0.1% | 0.1% | 0.1% | 0.1% | 0.1% |
| CCCCCCCCCCOC(=O)CCN(CCN(CCC(=O)OCCCCCCCCCC)C(C)C)C(C)C [LB62] | 0.1% | 0.1% | 0.1% | 0.1% | 0.1% | 0.1% |
| CCCCCCCCCCOC(=O)CCN(C)CCCN(C)CCC(=O)OCCCCCCCCCC [LB63] | 0.1% | 0.2% and 0.1% | 0.1% | 1.0% and 0.1% | 0.1% | 0.2% and 0.1% |

Source: US9006487B2, “Amine-containing lipids and uses thereof” (Massachusetts Institute of Technology, priority 2005, dated 2015)
